The values that follow come from patent US20060148692A1, “Novel protein and its dna” (priority 2003, published 2006).

In assay [1] the test system is GeneBank No. 170665. Kind of assay: Gene expression analysis (oligonucleotide microarray) in rat primary nerve cells under endoplasmic reticulum stress. Format: cell-based. As to conditions: standardized with the median (=1). On the procedure:
Rat primary nerve cells prepared from TP-17 CD rats (Nippon Charles River) were suspended in B27-containing neurobasal medium (NB medium, GIBCO), then put at a density of 250,000 cells/well in a type I collagen-coated 24-well plate (SUMILON), and cultured for 3 days. (i) Tunicamycin (Tnc) was added at a final concentration of 100 nM to the cultured cells, (ii) thapsigargin (Thap) was added at a final concentration of 2 nM to the cultured cells, or (iii) after the medium was exchanged twice with glucose-free B27-containing DMEM medium, 2-deoxyglucose (2DG) was added at a concentration of 3 mM to the cultured cells. After 4, 8, and 24 hours, total RNA was extracted from the respective cells by using RNeasy Mini Kit (Qiagen) according to its instructions. As the control, the cells to which each medium was added in place of the above chemicals (Tnc, Thap and 2DG) (cells to which no chemical was added) were used. These were used as the material to conduct gene expression analysis using an oligonucleotide microarray (Rat Genome U34A, Affymetrix).
The experimental method was in accordance with instructions of Affymetrix (Expression analysis technical manual). As a result of comparison of gene expression profiles of the cells stimulated with each chemical and the cells to which no chemical was added, the expression of GeneBank No. 170665 was promoted by endoplasmic reticulum stress stimulation [the above (i), (ii) and (iii)] (Table 1).

Assay [2] concerns GeneBank No. 170665. Kind of assay: Gene expression analysis (oligonucleotide microarray) in rat primary nerve cells stimulated with β-amyloid. The format is cell-based. The note with it: β-amyloid 25 nM, standardized with the median (=1). On the procedure:
For the purpose of examining whether the expression of GeneBank No. 170665 whose expression was promoted by endoplasmic reticulum stress was influenced by β-amyloid stimulation, gene expression analysis was conducted using the cells stimulated with β-amyloid in the same manner as in Example 1.
Rat primary nerve cells prepared in the same manner as in Example 1 were suspended in N2-containing DMEM medium (GIBCO), then put at a density of 250,000 cells/well and cultured for 4 days. After culture, β-amyloid suspended at a final concentration of 25 nM in the above medium was added to the cells. After 4, 8, and 24 hours, total RNA was extracted from the cells and gene analysis was conducted in the same manner as in Example 1. As the control, the cells to which the above medium was added in place of β-amyloid were used. The expression of GeneBank No. 170665 was promoted in the cells stimulated with β-amyloid, as compared with the control (Table 2).

Another assay has as its system IMR-32 cells. The assay is described as follows: Aβ40 and Aβ42 concentration in culture supernatant of transformed cells by ELISA. The note with it: IMR-32 cells transformed with C1 vs GFP control cells; 24 hours after medium exchange. The format is cell-based. The protocol:
The C1 gene expression vector described in Example 4 was transformed into IMR-32 cells by using Nucleofector (AMAXA). As the control, a GFP gene expression vector (Wako) was transformed into other IMR-32 cells. The respective transformed cells were put at a density of 1,000,000 cells/well in a type I collagen-coated 24-well plate (IWAKI) and cultured for 16 hours. After the medium was exchanged with a new one, the cells were cultured for additional 24 hours, and the concentrations of Aβ40 and Aβ42 in the culture supernatant were measured respectively by ELISA (Biochemistry 34, 10272-10278, 1995).

A further assay has as its system SK-N-AS cells. The assay is described as follows: DNA cleavage accompanying tunicamycin-induced cell-death (CELL DEATH DETECTION ELISA PLUS) in transformed cells. Format: cell-based, human. As to conditions: SK-N-AS cells transformed with the C1 gene vs pcDNA3.1 control cells; tunicamycin for 1 or 2 days. On the procedure: A plasmid comprising the nucleotide sequence represented by SEQ ID NO:2 was designated C1-pcDNA3.1/V5-His TOPO, and a transformant having the plasmid was designated Escherichia coli DH5α/C1-pcDNA3.1N5-His TOPO. This transformant was cultured in LB medium, and the vector was recovered by using QUAGEN plasmid midi kit (Qiagen). This C1 gene expression vector was transformed into SK-N-AS cells by using Nucleofector (AMAXA). As the control, pcDNA3.1 (Invitrogen) was transformed into SK-N-AS cells.
The respective transformed cells were put at a density of 7500 cells/well in a type I collagen-coated 96-well plate (IWAKI) and then cultured overnight, and after tunicamycin was added at various concentrations, the cells were cultured for 1 or 2 days to induce cell-death. After culture, DNA cleavage accompanying cell-death was detected by using CELL DEATH DETECTION ELISA^PLUS kit (Roche). The experimental method was in accordance with instructions attached to the kit.
In general terms: ELISA stands for enzyme-linked immunosorbent assay.

For the molecule `O=CC[C@@H](O)[C@H](O)[C@H](O)CO` [2DG, 2-deoxyglucose], the Gene expression level came to 16.71 with GeneBank No. 170665 [1] (2DG 3 mM in glucose-free DMEM medium, after 4 hours); 15.11 in the assay with GeneBank No. 170665 [1] (2DG 3 mM in glucose-free DMEM medium, after 8 hours); 14.55 with GeneBank No. 170665 [1] (2DG 3 mM in glucose-free DMEM medium, after 24 hours).

In the case of tunicamycin, the Gene expression level in the assay with GeneBank No. 170665 [1] (tunicamycin 100 nM, after 4 hours) was determined as 3.00; with GeneBank No. 170665 [1] (tunicamycin 100 nM, after 8 hours), 2.81; with GeneBank No. 170665 [1] (tunicamycin 100 nM, after 24 hours), 3.63.

In the case of `C/C=C(/C)C(=O)O[C@H]1C(C)=C2[C@H]([C@@H]1OC(=O)CCCCCCC)[C@@](C)(OC(C)=O)C[C@H](OC(=O)CCC)[C@@]1(O)[C@H]2OC(=O)[C@@]1(C)O` [thapsigargin], the Gene expression level in the assay on GeneBank No. 170665 [1] (thapsigargin 2 nM, after 4 hours) is 8.77; with GeneBank No. 170665 [1] (thapsigargin 2 nM, after 8 hours) it was 9.65; in the assay with GeneBank No. 170665 [1] (thapsigargin 2 nM, after 24 hours), 7.56.

For the molecule β-amyloid, the Gene expression level with GeneBank No. 170665 [2] (after 4 hours) was found to be 3.44; in the assay on GeneBank No. 170665 [2] (after 8 hours), 6.99; in the assay with GeneBank No. 170665 [2] (after 24 hours) it was 4.40.

B1: C1: 264-amino-acid protein (SEQ ID NO: 1) encoded by SEQ ID NO:2; tested by transforming cells with C1 gene expression vector (protein, listed as Homo sapiens)
chain: MGGAQLELPSGARPGVCVRRSFRAHAGDQPRRPPGPIPVPGTMKQESAAPNTPPTSQSPTPSAQFPRNDGDPQALWIFGYGSLVWRPDFAYSDSRVGFVRGYSRRFWQGDTFHRGSDKMPGRVVTLLEDHEGCTWGVAYQVQGEQVSKALKYLNVREAVLGGYDTKEVTFYPQDAPDQPLKALAYVATPQNPGYLGPAPEEAIATQILACRGFSGHNLEYLLRLADFMQLCGPQAQDEHLAAIVDAVGTMLPCFCPTEQALALV
For the molecule B1, in the assay on IMR-32 cells, the “Aβ40 concentration in culture supernatant” value is listed as “reduced” and the “Aβ42 concentration in culture supernatant” value is “reduced”. Also, in the assay on SK-N-AS cells, the “DNA cleavage (cell-death)” value was “promoted”.
